Each structure is given as a SMILES string. Where a name gives a salt, the structure may show the parent alone.

Among the data in patent US11739082B2, “Thiophene compounds, process for synthesis and use thereof” (AHAMMUNE BIOSCIENCES PRIVATE LIMITED, priority 2017, dated 2023) are EC50 values, retold here.

Experiment [1] relates to human A375 cells. The experiment can be described thus: Recovery of cell viability after tunicamycin-induced stress, MTT assay. The note with it: A-375, tunicamycin 100 ng/ml, 72 h. The format is cell-based. On the procedure:
(§1) Methods used for Experimental Data: Mouse B16F10 or human A375 cells were seeded (5000 cells per well) in 96-well plates for 24 h. Cells were then treated in quadruplicate with multiple concentrations of compounds for 6 h. The compounds were dissolved in DMSO at 1000× concentration and then diluted to final concentration directly in cell culture medium. The vehicle control (VC) contains equal amount of DMSO. Cells were then treated with tunicamycin (Tm) (300 ng/ml for B16F10 and 100 ng/ml for A375 cells) and after 72 h of treatment, MTT assay was performed. Cell growth in vehicle control was calculated as 100% and effect of the compounds over tunicamycin treatment was calculated accordingly. EC50 values were calculated using GraphPad Prism 7 software.
Background: Tetrazolium assays rely on reduction of a dye to a coloured formazan, in cell work by metabolically active cells.

The subject of experiment [2] is mouse B16F10 cells. The experiment is described as above. It counts as cell-based. The note with it: B16-F10, tunicamycin 300 ng/ml, 72 h. As to the method:
as §1

As usually defined, the EC50 is the concentration at which the effect is half-maximal. Read a high EC50 as a need for much substance. As to `O=C(Cc1ccc(-c2ccc(Cl)cc2)s1)N1CCOCC1` [AB1151, 2-(5-(4-chlorophenyl)thiophen-2-yl)-1-morpholinoethan-1-one], in experiment [1], the EC50 stood at 10.6 µM. Take `O=C(Cc1ccc(-c2cccc(Cl)c2)s1)NCCN1CCOCC1` [AB1113, 2-(5-(3-chlorophenyl)thiophen-2-yl)-N-(2-morpholinoethyl)acetamide]: the EC50 in experiment [2] is 46.7 µM; in experiment [1], 18.3 µM. Taken in the same sequence, the figures for `O=C(Cc1ccc(-c2cc(Cl)cc(Cl)c2)s1)NCCN1CCOCC1` [AB1114, 2-(5-(3,5-dichlorophenyl)thiophen-2-yl)-N-(2-morpholinoethyl)acetamide] were 12.5 µM and 4.26 µM. Molecule `O=C(Cc1ccc(-c2ccc(Cl)cc2)s1)N1CCSCC1` [AB1152, 2-(5-(4-chlorophenyl)thiophen-2-yl)-1-thiomorpholinoethan-1-one] yielded an EC50 in experiment [1] of 4.86 µM. On to `O=C(Cc1ccc(-c2ccc(F)cc2)s1)NCCN1CCOCC1` [AB1093, 2-(5-(4-fluorophenyl)thiophen-2-yl)-N-(2-morpholinoethyl)acetamide], for which the EC50 was found to be 36.2 µM in experiment [2] and 31.2 µM in experiment [1]. In the case of `O=C(Cc1ccc(-c2cc(Cl)cc(Cl)c2)s1)NCCN1CCS(=O)(=O)CC1` [AB1163, 2-(5-(3,5-dichlorophenyl)thiophen-2-yl)-N-(2-(1,1-dioxidothiomorpholino)ethyl)acetamide], a half-maximal effect in experiment [1] (EC50) was put at 5.15 µM. As to `O=C(Cc1ccc(-c2ccccc2)s1)NCCN1CCOCC1` [AB1102, N-(2-morpholinoethyl)-2-(5-phenylthiophen-2-yl)acetamide], the figures for the EC50 in experiment [2] and in experiment [1] were 55.7 µM and 71.1 µM, respectively. As for `O=C(Cc1ccc(-c2cc(Cl)cc(Cl)c2)s1)NCCCN1CCOCC1` [AB1162, 2-(5-(3,5-dichlorophenyl)thiophen-2-yl)-N-(3-morpholinopropyl)acetamide], in experiment [1], the EC50 turned out to be 6.02 µM. `O=C(Cc1ccc(-c2ccc(Cl)cc2)s1)NCCCN1CCOCC1` [AB1118, 2-(5-(4-chlorophenyl)thiophen-2-yl)-N-(3-morpholinopropyl)acetamide]: the EC50 in experiment [2] was 19.5 µM; in experiment [1], 31.6 µM.

Take `O=C(Cc1ccc(-c2ccc(Cl)cc2Cl)s1)NCCCN1CCOCC1` [AB1110, 2-(5-(2,4-dichlorophenyl)thiophen-2-yl)-N-(3-morpholinopropyl)acetamide]: the EC50 in experiment [2] was determined as 6.24 µM; in experiment [1], 62.7 µM. Take `Cc1cc(C)n(-c2cccc(-c3ccc(CC(=O)NCCN4CCOCC4)s3)c2)n1` [AB1117, 2-(5-(3-(3,5-dimethyl-1H-pyrazol-1-yl)phenyl)thiophen-2-yl)-N-(2-morpholinoethyl) acetamide]: the figures for the EC50 in experiment [2] and in experiment [1] were 20.7 µM and 26.7 µM, respectively. Taken in the same sequence, the figures for `O=C(Cc1ccc(-c2cccc(F)c2)s1)NCCN1CCOCC1` [AB1108, 2-(5-(3-fluorophenyl)thiophen-2-yl)-N-(2-morpholinoethyl)acetamide] were 43.7 µM and 34.2 µM.

For the molecule `O=C(Cc1ccc(-c2ccc(Cl)cc2)s1)NCCN1CCOCC1` [AB1062, 2-(5-(4-chlorophenyl)thiophen-2-yl)-N-(2-morpholinoethyl)acetamide hydrochloride], the EC50 came to 32.1 µM in experiment [2] and 48.5 µM in experiment [1]. As to `O=C(Cc1ccc(-c2ccc(Cl)cc2Cl)s1)NCCN1CCOCC1` [AB1099, 2-(5-(2,4-dichlorophenyl)thiophen-2-yl)-N-(2-morpholinoethyl)acetamide], the values for the EC50 in experiment [2] and in experiment [1] were 10 µM and 17.3 µM, respectively.

With `O=C(Cc1ccc(-c2ccc(Cl)cc2Cl)s1)NCCCN1CCS(=O)(=O)CC1` [AB1119, 2-(5-(2,4-dichlorophenyl)thiophen-2-yl)-N-(3-(1,1-dioxidothiomorpholino)propyl)acetamide], the EC50 in experiment [2] came to 9.51 µM; in experiment [1], 8.47 µM. Taken in the same sequence, the figures for `O=C(Cc1ccc(-c2cc(Cl)cc(Cl)c2)s1)NCCCN1CCS(=O)(=O)CC1` [AB1164, 2-(5-(3,5-dichlorophenyl)thiophen-2-yl)-N-(3-(1,1-dioxidothiomorpholino)propyl)acetamide] were 9.72 µM and 3.7 µM.

As for `CCCCNC(=O)Cc1ccc(-c2ccc(Cl)cc2)s1` [AB1010, N-butyl-2-(5-(4-chlorophenyl)thiophen-2-yl)acetamide], the EC50 in experiment [2] came to 6.55 µM; in experiment [1], 5.22 µM.

In the case of `O=C(Cc1ccc(-c2ccc(C(F)(F)F)cc2)s1)NCCN1CCOCC1` [AB1116, N-(2-morpholinoethyl)-2-(5-(4-(trifluoromethyl)phenyl)thiophen-2-yl)acetamide], the EC50 in experiment [2] amounted to 13.7 µM. Take `O=C(Cc1ccc(-c2ccc(Cl)cc2Cl)s1)NCCN1CCS(=O)(=O)CC1` [AB1109, 2-(5-(2,4-dichlorophenyl)thiophen-2-yl)-N-(2-(1,1-dioxidothiomorpholino)ethyl)acetamide]: the EC50 turned out to be 6.49 µM in experiment [2] and 13.9 µM in experiment [1]. As to `COc1ccc(-c2ccc(CC(=O)NCCN3CCOCC3)s2)cc1` [AB1115, 2-(5-(4-methoxyphenyl)thiophen-2-yl)-N-(2-morpholinoethyl)acetamide], in experiment [2], the EC50 is 53.4 µM.
